Measurements: ChEMBL document CHEMBL1139879, “Indolizidine alkaloids with delta-opioid receptor binding affinity from the leaves of Elaeocarpus fuscoides” (J Nat Prod, 2007)

Target: Delta-type opioid receptor (Homo sapiens, UniProt P41143)
Assay: Displacement of [125I]deltorphin 2 from human recombinant delta opioid receptor expressed in HEK cell membranes
Parameters: species or system HEK293

Chain of Delta-type opioid receptor (P41143 whole entry): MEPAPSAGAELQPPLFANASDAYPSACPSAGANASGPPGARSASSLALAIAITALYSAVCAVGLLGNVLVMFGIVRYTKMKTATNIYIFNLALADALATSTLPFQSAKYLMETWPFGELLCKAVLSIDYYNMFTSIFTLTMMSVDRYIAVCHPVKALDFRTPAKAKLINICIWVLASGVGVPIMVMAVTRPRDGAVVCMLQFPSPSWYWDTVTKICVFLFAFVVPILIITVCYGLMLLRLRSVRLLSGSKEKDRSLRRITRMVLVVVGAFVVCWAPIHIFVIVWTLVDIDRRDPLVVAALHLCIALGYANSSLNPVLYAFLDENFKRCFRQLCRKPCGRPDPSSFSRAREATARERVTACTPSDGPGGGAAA

Compound: Cc1cccc2c1C(=O)[C@H]1[C@H](CCN3CCC[C@H]13)O2 [ISOELAEOCARPINE]
- IC50: 13.6 µM

Compound: Cc1cccc(O)c1C(=O)C1=CCCN2CCC[C@H]12 [ELAEOCARPENINE]
- IC50: 2.74 µM

Compound: Cc1cccc(O)c1C(=O)[C@@H]1[C@H]2CCCN2CC[C@@H]1O [ISOELAEOCARPICINE]
- IC50: 35.1 µM

Compound: Cc1cccc2c1C(=O)C1[C@H]3CCCN3CC[C@H]1O2 (some centres undefined) [ELAEOCARPINE]
- IC50: 86.4 µM
